Assay results taken from ChEMBL document CHEMBL4152332, “Discovery and synthesis of novel magnolol derivatives with potent anticancer activity in non-small cell lung cancer” (Eur J Med Chem, 2018).
Converted amounts (≈) assume the structure as drawn.

How the values were obtained:
HCC827 [1] = test: Antiproliferative activity against human HCC827 cells after 72 hrs by MTT assay; format: functional, cell-based; conditions: HCC827, 72 h
NCI-H1975 [2] = test: Antiproliferative activity against human NCI-H1975 cells after 72 hrs by MTT assay; format: functional, cell-based; conditions: NCI-H1975, 72 h
NCI-H460 [3] = test: Antiproliferative activity against human H460 cells after 72 hrs by MTT assay; format: functional, cell-based; conditions: NCI-H460, 72 h
A549 = test: Antiproliferative activity against human A549 cells after 72 hrs by MTT assay; format: functional, cell-based; conditions: A549, 72 h
[4] = Antiproliferative activity against human SPC-A1 cells after 72 hrs by MTT assay; format: functional, cell-based; conditions: SPCA1, 72 h
NCI-H1650 = test: Antiproliferative activity against human NCI-H1650 cells after 72 hrs by MTT assay; format: functional, cell-based; conditions: NCI-H1650, 72 h
PC-9 = test: Antiproliferative activity against human PC9 cells after 72 hrs by MTT assay; format: functional, cell-based; conditions: PC-9, 72 h
NCI-H441 = test: Antiproliferative activity against human H441 cells after 72 hrs by MTT assay; format: functional, cell-based; conditions: NCI-H441, 72 h
NCI-H358 = test: Antiproliferative activity against human NCI-H358 cells after 72 hrs by MTT assay; format: functional, cell-based; conditions: NCI-H358, 72 h
[5] = Apparent aqueous solubility of the compound by HPLC analysis; format: physicochemical; conditions: aqueous solution
NCI-H1975 [6] = test: Cell cycle arrest in human NCI-H1975 cells assessed as increase in accumulation at G0/G1 phase after 24 hrs by propidium iodide staining-based flow cytometric analysis; format: functional
NCI-H1975 [7] = test: Cell cycle arrest in human NCI-H1975 cells assessed as reduction in accumulation at S phase after 24 hrs by propidium iodide staining-based flow cytometric analysis; format: functional
NCI-H1975 [8] = test: Cell cycle arrest in human NCI-H1975 cells assessed as reduction in accumulation at G2/M phase after 24 hrs by propidium iodide staining-based flow cytometric analysis; format: functional
NCI-H1975 [9] = test: Cell cycle arrest in human NCI-H1975 cells assessed as accumulation at G0/G1 phase at 5 uM after 24 hrs by propidium iodide staining-based flow cytometric analysis (reference value: 56.11%); format: functional
NCI-H1975 [10] = test: Cell cycle arrest in human NCI-H1975 cells assessed as accumulation at S phase at 5 uM after 24 hrs by propidium iodide staining-based flow cytometric analysis (reference value: 22.93%); format: functional
NCI-H1975 [11] = test: Cell cycle arrest in human NCI-H1975 cells assessed as accumulation at G2/M phase at 5 uM after 24 hrs by propidium iodide staining-based flow cytometric analysis (reference value: 20.11%); format: functional
NCI-H1975 [12] = test: Cell cycle arrest in human NCI-H1975 cells assessed as accumulation at G0/G1 phase at 10 uM after 24 hrs by propidium iodide staining-based flow cytometric analysis (reference value: 56.11%); format: functional
NCI-H1975 [13] = test: Cell cycle arrest in human NCI-H1975 cells assessed as accumulation at S phase at 10 uM after 24 hrs by propidium iodide staining-based flow cytometric analysis (reference value: 22.93%); format: functional
NCI-H1975 [14] = test: Cell cycle arrest in human NCI-H1975 cells assessed as accumulation at G2/M phase at 10 uM after 24 hrs by propidium iodide staining-based flow cytometric analysis (reference value: 20.11%); format: functional
NCI-H1975 [15] = test: Cell cycle arrest in human NCI-H1975 cells assessed as accumulation at G0/G1 phase at 20 uM after 24 hrs by propidium iodide staining-based flow cytometric analysis (reference value: 56.11%); format: functional
NCI-H1975 [16] = test: Cell cycle arrest in human NCI-H1975 cells assessed as accumulation at S phase at 20 uM after 24 hrs by propidium iodide staining-based flow cytometric analysis (reference value: 22.93%); format: functional
NCI-H1975 [17] = test: Cell cycle arrest in human NCI-H1975 cells assessed as accumulation at G2/M phase at 20 uM after 24 hrs by propidium iodide staining-based flow cytometric analysis (reference value: 20.11%); format: functional
NCI-H1975 [18] = test: Induction of apoptosis in human NCI-H1975 cells after 48 hrs by annexin V/FITC-propidium iodide staining-based flow cytometric method; format: functional, cell-based
NCI-H1975 [19] = test: Induction of apoptosis in human NCI-H1975 cells assessed as early apoptotic cells at 5 uM after 48 hrs by annexin V/FITC-propidium iodide staining-based flow cytometric method ( Rvb = 6.09%); format: functional
NCI-H1975 [20] = test: Induction of apoptosis in human NCI-H1975 cells assessed as late apoptotic cells at 5 uM after 48 hrs by annexin V/FITC-propidium iodide staining-based flow cytometric method ( Rvb = 10.4%); format: functional
NCI-H1975 [21] = test: Induction of apoptosis in human NCI-H1975 cells assessed as necrotic cells at 5 uM after 48 hrs by annexin V/FITC-propidium iodide staining-based flow cytometric method ( Rvb = 1.01%); format: functional
NCI-H1975 [22] = test: Induction of apoptosis in human NCI-H1975 cells assessed as viable cells at 5 uM after 48 hrs by annexin V/FITC-propidium iodide staining-based flow cytometric method ( Rvb = 82.5%); format: functional; conditions: NCI-H1975, 48 h, read-out: Activity
NCI-H1975 [23] = test: Induction of apoptosis in human NCI-H1975 cells assessed as early apoptotic cells at 10 uM after 48 hrs by annexin V/FITC-propidium iodide staining-based flow cytometric method ( Rvb = 6.09%); format: functional
NCI-H1975 [24] = test: Induction of apoptosis in human NCI-H1975 cells assessed as late apoptotic cells at 10 uM after 48 hrs by annexin V/FITC-propidium iodide staining-based flow cytometric method ( Rvb = 10.4%); format: functional
NCI-H1975 [25] = test: Induction of apoptosis in human NCI-H1975 cells assessed as necrotic cells at 10 uM after 48 hrs by annexin V/FITC-propidium iodide staining-based flow cytometric method ( Rvb = 1.01%); format: functional
NCI-H1975 [26] = test: Induction of apoptosis in human NCI-H1975 cells assessed as viable cells at 10 uM after 48 hrs by annexin V/FITC-propidium iodide staining-based flow cytometric method ( Rvb = 82.5%); format: functional; conditions: NCI-H1975, 48 h, read-out: Activity
NCI-H1975 [27] = test: Induction of apoptosis in human NCI-H1975 cells assessed as early apoptotic cells at 20 uM after 48 hrs by annexin V/FITC-propidium iodide staining-based flow cytometric method ( Rvb = 6.09%); format: functional
NCI-H1975 [28] = test: Induction of apoptosis in human NCI-H1975 cells assessed as late apoptotic cells at 20 uM after 48 hrs by annexin V/FITC-propidium iodide staining-based flow cytometric method ( Rvb = 10.4%); format: functional
NCI-H1975 [29] = test: Induction of apoptosis in human NCI-H1975 cells assessed as necrotic cells at 20 uM after 48 hrs by annexin V/FITC-propidium iodide staining-based flow cytometric method ( Rvb = 1.01%); format: functional
NCI-H1975 [30] = test: Induction of apoptosis in human NCI-H1975 cells assessed as viable cells at 20 uM after 48 hrs by annexin V/FITC-propidium iodide staining-based flow cytometric method ( Rvb = 82.5%); format: functional; conditions: NCI-H1975, 48 h, read-out: Activity
HUVEC = test: Antimigratory activity against HUVEC after 24 to 48 hrs by phase contrast/fluorescence microscopic analysis; format: functional, cell-based; conditions: Homo sapiens
Mus musculus = test: Toxicity in Balb/c mouse implanted with mouse C26 cells assessed as reduction in body weight at 100 mg/kg, po qd treated for 10 days and measured every 2 days; format: organism-based; conditions: in vivo
HCC827 [31] = test: Potency index, ratio of IC50 for honokiol to IC50 for test compound for antiproliferative activity against human HCC827 cells after 72 hrs by MTT assay; format: functional
NCI-H1975 [32] = test: Potency index, ratio of IC50 for honokiol to IC50 for test compound for antiproliferative activity against human NCI-H1975 cells after 72 hrs by MTT assay; format: functional
NCI-H460 [33] = test: Potency index, ratio of IC50 for honokiol to IC50 for test compound for antiproliferative activity against human H460 cells after 72 hrs by MTT assay; format: functional
HCC827 [34] = test: Potency index, ratio of IC50 for magnolol to IC50 for test compound for antiproliferative activity against human HCC827 cells after 72 hrs by MTT assay; format: functional
NCI-H1975 [35] = test: Potency index, ratio of IC50 for magnolol to IC50 for test compound for antiproliferative activity against human NCI-H1975 cells after 72 hrs by MTT assay; format: functional
NCI-H460 [36] = test: Potency index, ratio of IC50 for magnolol to IC50 for test compound for antiproliferative activity against human H460 cells after 72 hrs by MTT assay; format: functional

Work on `C=CCc1ccc(O)c(-c2cc(CC=C)cc(CN3CCCC(N)C3)c2O)c1` (stereo not drawn) yielded an IC50 (HCC827 [1]) of 4.87 µM, an IC50 (NCI-H1975 [2]) of 4.82 µM and an IC50 (NCI-H460 [3]) of 5.71 µM. For the same compound, the IC50 (A549) was 7.46 µM, the IC50 [4] was 8.43 µM and the IC50 (NCI-H1650) was 6.93 µM. It also gave an IC50 (PC-9) of 11.4 µM, an IC50 (NCI-H441) of 7.48 µM and an IC50 (NCI-H358) of 9.51 µM. The solubility [5] was 4080 µg/mL (≈ 10.8 mM), the Activity (NCI-H1975 [6]) was “Dose-dependent effect” and the Activity (NCI-H1975 [7]) was “Dose-dependent effect”. For the same compound, the Activity (NCI-H1975 [8]) was “Dose-dependent effect”, the Activity (NCI-H1975 [9]) was 65.67% and the Activity (NCI-H1975 [10]) was 16.29%. The Activity (NCI-H1975 [11]) was 16.05%, the Activity (NCI-H1975 [12]) was 70.32% and the Activity (NCI-H1975 [13]) was 9.26%. It also gave an Activity (NCI-H1975 [14]) of 18.21%, an Activity (NCI-H1975 [15]) of 79.88% and an Activity (NCI-H1975 [16]) of 4.75%. For the same compound, the Activity (NCI-H1975 [17]) was 13.83%, the Activity (NCI-H1975 [18]) was “Dose-dependent effect” and the Activity (NCI-H1975 [19]) was 7.56%. For the same compound, the Activity (NCI-H1975 [20]) was 22.5%, the Activity (NCI-H1975 [21]) was 0.74% and the viability at 5 µM (NCI-H1975 [22]) was 69.2%. For the same compound, the Activity (NCI-H1975 [23]) was 6.45%, the Activity (NCI-H1975 [24]) was 28.3% and the Activity (NCI-H1975 [25]) was 0.65%. The viability at 10 µM (NCI-H1975 [26]) was 64.6%, the Activity (NCI-H1975 [27]) was 40.6% and the Activity (NCI-H1975 [28]) was 57%. The Activity (NCI-H1975 [29]) was 0.38%, the viability at 20 µM (NCI-H1975 [30]) was 2.02% and the Activity (HUVEC) was “Dose-dependent effect”. The Activity (Mus musculus) was “Toxic”, the “Ratio IC50” value (HCC827 [31]) was 4 and the “Ratio IC50” value (NCI-H1975 [32]) was 4. For the same compound, the “Ratio IC50” value (NCI-H460 [33]) was 4, the “Ratio IC50” value (HCC827 [34]) was 8 and the “Ratio IC50” value (NCI-H1975 [35]) was 8. The “Ratio IC50” value (NCI-H460 [36]) was 8.
